Measurements as given in US20130101628A1 (NORTHWESTERN UNIVERSITY, priority 2011, published 2013).
* marks the point of attachment. Palmitoyl = CCCCCCCCCCCCCCCC(=O)*

Columns and labels:
HUVECs = test: HUVEC survival after serum-starvation (Annexin V-PE apoptosis); assay type: cell-based, human; conditions: 1 μM in EBM, serum-starvation 24 hours; untreated 31.7%
Protocol: To evaluate cell survival, endothelial basal media (EBM) without growth factors (Lonza) was used to induce a serum-starvation. Cells were plated in 12 well plates and grown to confluence with standard growth media. […] Cells were grown in these conditions for 24 hours. Survival was quantified using Annexin V: PE staining with 7-AAD vital staining (BD Biosciences) following provided assay instructions and analyzed on a DakoCytomation CyAn. Survival was assessed by determining the fraction of cells that were apoptotic (Annexin V-PE positive).

[1] = test system: chicken chorioallantoic membrane (CAM); test: Shell-less chicken chorioallantoic membrane (CAM) angiogenesis assay; assay type: in vivo; conditions: 2 mM in PBS dried on coverslip, three days following treatment; saline 132%
Excerpt: An established assay reflecting in vivo angiogenesis, the chicken chorioallantoic membrane (CAM) assay, was used to evaluate the angiogenic potential of the VEGF-PA of the present examples. This assay utilizes the extra-embryonic allantois, a tissue derived from the mesoderm that develops into a densely vascularized membrane. A common deviation from the traditional assay is to remove the shell and conduct the assay on a shell-less embryo, termed the shell-less CAM assay, as we have performed here. Fertilized white leghorn chicken eggs (Phil's Fresh Eggs, Forreston, Ill.) were received and cultured in a temperature controlled, humidified egg incubator. On embryonic day 3, eggs were cracked within a sterile tissue culture hood into round 100 mm petri dishes. Fertilized embryos were then transferred to a water-jacketed CO2 incubator, set to 37.5° C., 1% CO2 and 100% relative humidity. On embryonic day 10, the material treatment was dissolved at 2 mM in PBS, evaporated onto the surface of a 5 mm round glass cover slip, and placed facing down on top of the CAM (n=16/group). Digital images were captured through the eyepiece of a Nikon stereomicroscope and vessel density was quantified by the number of intersections of vessel structures with the edge of the cover slip and expressed relative to the initial time-point. Images were captured daily, beginning at embryonic day 10 and culminating on embryonic day 13, the standard range over which the CAM assay is performed. Additionally, images were assessed qualitatively for morphological differences in the CAM vasculature including spoking, branching and leakage.

CH3(CH2)14C(O)— VVAAKKKGKLTWQELYQLKYKGI-NH2 (Palmitoyl-VVAAKKKGKLTWQELYQLKYKGI-NH2; SMILES CCCCCCCCCCCCCCCC(=O)N[C@H](C(=O)N[C@H](C(=O)N[C@@H](C)C(=O)N[C@@H](C)C(=O)N[C@@H](CCCCN)C(=O)N[C@@H](CCCCN)C(=O)N[C@@H](CCCCN)C(=O)NCC(=O)N[C@@H](CCCCN)C(=O)N[C@@H](CC(C)C)C(=O)N[C@H](C(=O)N[C@@H](Cc1c[nH]c2ccccc12)C(=O)N[C@@H](CCC(N)=O)C(=O)N[C@@H](CCC(=O)O)C(=O)N[C@@H](CC(C)C)C(=O)N[C@@H](Cc1ccc(O)cc1)C(=O)N[C@@H](CCC(N)=O)C(=O)N[C@@H](CC(C)C)C(=O)N[C@@H](CCCCN)C(=O)N[C@@H](Cc1ccc(O)cc1)C(=O)N[C@@H](CCCCN)C(=O)NCC(=O)N[C@H](C(N)=O)[C@@H](C)CC)[C@@H](C)O)C(C)C)C(C)C) [VEGF-PA]
fraction of apoptotic cells (Annexin V-PE positive) (HUVECs): 10.2%±3.2% | blood vessels relative to the initial value [1]: 229%±19%
